Biological target: vanilloid receptor 1 (VR1/TRPV1) (Homo sapiens (Human), UniProt Q8NER1)
Assay: FLIPR assay, Ca2+ influx in CHO K1 cells transfected with the human VR1 gene
Type: cell-based
Conditions: for Ki: displacement of capsaicin 100 nM, Ki from IC50 by Cheng-Prusoff equation, read-out: (f) Ki (human) [nM] Cap
Experimental: Furthermore, preference may be given to compounds according to the first aspect of the invention that cause a 50% displacement of capsaicin, which is present at a concentration of 100 nM, in a FLIPR assay with CHO K1 cells which were transfected with the human VR1 gene at a concentration of less than 2 000 nM, preferably less than 1 000 nM, particularly preferably less than 300 nM, most particularly preferably less than 100 nM, even more preferably less than 75 nM, additionally preferably less than 50 nM, most preferably less than 10 nM. In the process, the Ca^2+ influx is quantified in the FLIPR assay with the aid of a Ca^2+-sensitive dye (type Fluo-4, Molecular Probes Europe BV, Leiden, the Netherlands) in a fluorescent imaging plate reader (FLIPR, Molecular Devices, Sunnyvale, USA), as described hereinafter.
The FLIPR protocol consists of 2 substance additions during a kinetic measurement. First the compounds to be tested (5 μM) are pipetted onto the cells and the Ca^2+ influx is determined in comparison to the control (capsaicin 10 μM), providing the result as % activation and representing the compound-alone effect (calculation at peak signal related to baseline). […] After 5 min incubation, the Ca^2+ influx is related to an injection of 100 nM of capsaicin and thereby the antagonistic effect of the test compounds detected.
Desensitising agonists and antagonists lead to suppression of the Ca^2+ influx. The % inhibition is calculated compared to the maximum achievable inhibition with 10 μM of capsaicin. Triple analyses (n=3) are carried out and repeated in at least 3 independent experiments.
Starting from the percentage displacement caused by different concentrations of the compounds to be tested of general formula I, IC50 inhibitory concentrations which cause a 50-% displacement of capsaicin were calculated. Ki values for the test substances were obtained by conversion by means of the Cheng-Prusoff equation (Cheng, Prusoff; Biochem. Pharmacol. 22, 3099-3108, 1973).
Chinese hamster ovary cells (CHO K1 cells, European Collection of Cell Cultures (ECACC) United Kingdom) are stably transfected with the VR1 gene. For functional testing, these cells are plated out on poly-D-lysine-coated black 96-well plates having a clear base (BD Biosciences, Heidelberg, Germany) at a density of 25,000 cells/well. The cells are incubated overnight at 37° C. and 5% CO2 in a culture medium (Ham's F12 nutrient mixture, 10% by volume of FCS (foetal calf serum), 18 μg/ml of L-proline). The next day the cells are incubated with Fluo-4 (Fluo-4 2 μM, 0.01% by volume of Pluronic F127, Molecular Probes in HBSS (Hank's buffered saline solution), Gibco Invitrogen GmbH, Karlsruhe, Germany) for 30 min at 37° C. Subsequently, the plates are washed three times with HBSS buffer and after further incubation for 15 min at RT used for Ca^2+ measurement in a FLIPR assay. The Ca^2+-dependent fluorescence is measured before and after the addition of the substances to be tested (λex wavelength=488 nm, λem=540 nm). Quantification is carried out by measuring the highest fluorescence intensity (FC, fluorescence counts) over time.

Chain of vanilloid receptor 1 (VR1/TRPV1) (Q8NER1 whole entry): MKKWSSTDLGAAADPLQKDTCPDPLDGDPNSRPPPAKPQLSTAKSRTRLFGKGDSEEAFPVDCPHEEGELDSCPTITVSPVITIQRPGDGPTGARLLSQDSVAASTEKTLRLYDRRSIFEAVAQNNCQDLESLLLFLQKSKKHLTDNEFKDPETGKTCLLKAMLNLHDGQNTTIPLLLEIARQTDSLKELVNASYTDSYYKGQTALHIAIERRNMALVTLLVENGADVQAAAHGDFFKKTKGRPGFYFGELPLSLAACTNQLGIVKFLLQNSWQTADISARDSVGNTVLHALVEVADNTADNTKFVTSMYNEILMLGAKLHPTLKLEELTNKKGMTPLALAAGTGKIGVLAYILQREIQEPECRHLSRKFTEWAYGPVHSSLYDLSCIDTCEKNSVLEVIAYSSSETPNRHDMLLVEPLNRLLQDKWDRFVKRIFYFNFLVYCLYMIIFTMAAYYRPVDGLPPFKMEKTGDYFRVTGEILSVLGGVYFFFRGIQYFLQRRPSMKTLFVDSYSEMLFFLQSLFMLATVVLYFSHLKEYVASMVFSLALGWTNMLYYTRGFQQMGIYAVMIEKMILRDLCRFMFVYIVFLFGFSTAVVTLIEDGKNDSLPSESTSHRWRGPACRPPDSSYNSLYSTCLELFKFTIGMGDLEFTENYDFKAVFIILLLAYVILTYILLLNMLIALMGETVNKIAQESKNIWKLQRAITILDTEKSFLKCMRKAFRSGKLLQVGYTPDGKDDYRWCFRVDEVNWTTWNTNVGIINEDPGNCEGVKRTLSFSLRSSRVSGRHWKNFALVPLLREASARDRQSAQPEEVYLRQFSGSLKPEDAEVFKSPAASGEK

Q: For `CC(C)(C)c1nc(-c2cccc(Cl)c2)c(CNC(=O)Nc2ccc3c(c2)OCCO3)s1` [EX-54, 1-((2-(tert-butyl)-4-(3-chlorophenyl)thiazol-5-yl)methyl)-3-(2,3-dihydrobenzo[b][1,4]dioxin-6-yl)urea], which Ki is on record?
A: 5.9 nM

Q: For `CC(C)(C)c1nc(-c2cccc(Cl)c2)c(CNC(=O)Nc2ccc(OCCO)nc2)o1` [EX-40, 1-((2-(tert-butyl)-4-(3-chlorophenyl)oxazol-5-yl)methyl)-3-(6-(2-hydroxyethoxy)pyridin-3-yl)urea], which Ki is on record?
A: 43.6 nM

Q: With `CC(C(=O)NCc1sc(C(F)(F)F)nc1-c1cccc(Cl)c1)c1ccc(C2(O)COC2)cc1` (stereo not drawn) [EX-10, N-((4-(3-chlorophenyl)-2-(trifluoromethyl)thiazol-5-yl)methyl)-2-(4-(3-hydroxyoxetan-3-yl)phenyl)propanamide] as the compound, how does the “compound-alone effect on Ca2+ influx (agonist / partial agonist)” value (compound 5 μM, % activation compared with control capsaicin 10 μM) read?
A: pAG (A Ca^2+ influx of 10%-60% reveals a partial agonist (pAG))

Q: What about the Ki of the same compound?
A: 8.8 nM

Q: For `O=C(NCc1oc(C(F)(F)F)nc1-c1cccc(Cl)c1)Nc1ccc(CO)nc1` [EX-27, 1-((4-(3-chlorophenyl)-2-(trifluoromethyl)oxazol-5-yl)methyl)-3-(6-(hydroxymethyl)pyridin-3-yl)urea], which Ki is on record?
A: 62.5 nM

Q: With `CC(C(=O)NCc1sc(C(F)(F)F)nc1-c1cccc(Cl)c1)c1cnc(CCS(C)(=O)=O)c(F)c1` (stereo not drawn) [EX-12, N-((4-(3-chlorophenyl)-2-(trifluoromethyl)thiazol-5-yl)methyl)-2-(5-fluoro-6-(2-(methylsulfonyl)ethyl)pyridin-3-yl)propanamide] as the compound, how does the Ki read?
A: 1.1 nM

Q: For `CC(C(=O)NCc1oc(C(F)(F)F)nc1-c1cccc(Cl)c1)c1cnc(CO)c(F)c1` (stereo not drawn) [EX-22, N-((4-(3-chlorophenyl)-2-(trifluoromethyl)oxazol-5-yl)methyl)-2-(5-fluoro-6-(hydroxymethyl)pyridin-3-yl)propanamide], which “(f) Ki (human) Cap: no effect” value (inhibition <10% @5 μM) is on record?
A: ne (ne=no effect (<10% @5 μM))

Q: `CC(C)(C)c1nc(-c2cccc(F)c2)c(CNC(=O)Nc2ccc(CNS(C)(=O)=O)cc2)s1` [EX-39, N-(4-(3-((2-(tert-butyl)-4-(3-fluorophenyl)thiazol-5-yl)methyl)ureido)benzyl)methanesulfonamide] was tested. Which Ki did it give?
A: 17.6 nM

Q: For `CC(C(=O)NCc1oc(C(F)(F)F)nc1-c1cccc(Cl)c1)c1ccc(CCO)c(F)c1` (stereo not drawn) [EX-02, N-((4-(3-chlorophenyl)-2-(trifluoromethyl)oxazol-5-yl)methyl)-2-(3-fluoro-4-(2-hydroxyethyl)-phenyl)propanamide], which Ki is on record?
A: 28.4 nM
